Measured values reported in PMC11981937 (Nature, 2025).

Assay: In vivo mortality (stray panel in source data sheet Fig. 3d)

## COc1cc(N[C@H](C(=O)c2c[nH]c3ccc(OC(F)(F)F)cc23)c2ccc(Cl)cc2OC)cc(S(C)(=O)=O)c1 [JNJ-1802]
802R_0.3, BID, d p.i. 0
  % Survival: 100%
802R_0.3, BID, d p.i. 1
  % Survival: 100%
802R_0.3, BID, d p.i. 2
  % Survival: 100%
802R_0.3, BID, d p.i. 3
  % Survival: 100%
802R_0.3, BID, d p.i. 4
  % Survival: 100%
802R_0.3, BID, d p.i. 5
  % Survival: 100%
802R_0.3, BID, d p.i. 6
  % Survival: 100%
802R_0.3, BID, d p.i. 7
  % Survival: 100%
802R_0.3, BID, d p.i. 8
  % Survival: 100%
802R_0.3, BID, d p.i. 9
  % Survival: 100%
802R_0.3, BID, d p.i. 10
  % Survival: 100%
802R_0.3, BID, d p.i. 11
  % Survival: 100%
802R_0.3, BID, d p.i. 12
  % Survival: 100%
802R_0.3, BID, d p.i. 13
  % Survival: 100%
802R_0.3, BID, d p.i. 14
  % Survival: 100%
802R_0.3, BID, d p.i. 15
  % Survival: 100%
802R_0.3, BID, d p.i. 16
  % Survival: 100%
802R_0.3, BID, d p.i. 17
  % Survival: 90%
802R_0.3, BID, d p.i. 18
  % Survival: 90%
802R_0.3, BID, d p.i. 19
  % Survival: 90%
802R_0.3, BID, d p.i. 20
  % Survival: 90%
802R_0.3, BID, d p.i. 21
  % Survival: 90%
802R_0.3, BID, d p.i. 22
  % Survival: 90%
802R_0.3, BID, d p.i. 23
  % Survival: 90%
802R_0.3, BID, d p.i. 24
  % Survival: 90%
802R_0.3, BID, d p.i. 25
  % Survival: 90%
802R_1, BID, d p.i. 0
  % Survival: 100%
802R_1, BID, d p.i. 1
  % Survival: 100%
802R_1, BID, d p.i. 2
  % Survival: 100%
802R_1, BID, d p.i. 3
  % Survival: 100%
802R_1, BID, d p.i. 4
  % Survival: 100%
802R_1, BID, d p.i. 5
  % Survival: 100%
802R_1, BID, d p.i. 6
  % Survival: 100%
802R_1, BID, d p.i. 7
  % Survival: 100%
802R_1, BID, d p.i. 8
  % Survival: 100%
802R_1, BID, d p.i. 9
  % Survival: 100%
802R_1, BID, d p.i. 10
  % Survival: 100%
802R_1, BID, d p.i. 11
  % Survival: 100%
802R_1, BID, d p.i. 12
  % Survival: 100%
802R_1, BID, d p.i. 13
  % Survival: 100%
802R_1, BID, d p.i. 14
  % Survival: 100%
802R_1, BID, d p.i. 15
  % Survival: 100%
802R_1, BID, d p.i. 16
  % Survival: 100%
802R_1, BID, d p.i. 17
  % Survival: 100%
802R_1, BID, d p.i. 18
  % Survival: 100%
802R_1, BID, d p.i. 19
  % Survival: 100%
802R_1, BID, d p.i. 20
  % Survival: 100%
802R_1, BID, d p.i. 21
  % Survival: 100%
802R_1, BID, d p.i. 22
  % Survival: 100%
802R_1, BID, d p.i. 23
  % Survival: 100%
802R_1, BID, d p.i. 24
  % Survival: 100%
802R_1, BID, d p.i. 25
  % Survival: 100%
802R_3, BID, d p.i. 0
  % Survival: 100%
802R_3, BID, d p.i. 1
  % Survival: 100%
802R_3, BID, d p.i. 2
  % Survival: 100%
802R_3, BID, d p.i. 3
  % Survival: 100%
802R_3, BID, d p.i. 4
  % Survival: 100%
802R_3, BID, d p.i. 5
  % Survival: 100%
802R_3, BID, d p.i. 6
  % Survival: 100%
802R_3, BID, d p.i. 7
  % Survival: 100%
802R_3, BID, d p.i. 8
  % Survival: 100%
802R_3, BID, d p.i. 9
  % Survival: 100%
802R_3, BID, d p.i. 10
  % Survival: 100%
802R_3, BID, d p.i. 11
  % Survival: 100%
802R_3, BID, d p.i. 12
  % Survival: 100%
802R_3, BID, d p.i. 13
  % Survival: 100%
802R_3, BID, d p.i. 14
  % Survival: 100%
802R_3, BID, d p.i. 15
  % Survival: 100%
802R_3, BID, d p.i. 16
  % Survival: 100%
802R_3, BID, d p.i. 17
  % Survival: 100%
802R_3, BID, d p.i. 18
  % Survival: 100%
802R_3, BID, d p.i. 19
  % Survival: 100%
802R_3, BID, d p.i. 20
  % Survival: 100%
802R_3, BID, d p.i. 21
  % Survival: 100%
802R_3, BID, d p.i. 22
  % Survival: 90%
802R_3, BID, d p.i. 23
  % Survival: 90%
802R_3, BID, d p.i. 24
  % Survival: 80%
802R_3, BID, d p.i. 25
  % Survival: 80%
802R_10, BID, d p.i. 0
  % Survival: 100%
802R_10, BID, d p.i. 1
  % Survival: 100%
802R_10, BID, d p.i. 2
  % Survival: 100%
802R_10, BID, d p.i. 3
  % Survival: 100%
802R_10, BID, d p.i. 4
  % Survival: 100%
802R_10, BID, d p.i. 5
  % Survival: 100%
802R_10, BID, d p.i. 6
  % Survival: 100%
802R_10, BID, d p.i. 7
  % Survival: 100%
802R_10, BID, d p.i. 8
  % Survival: 100%
802R_10, BID, d p.i. 9
  % Survival: 100%
802R_10, BID, d p.i. 10
  % Survival: 100%
802R_10, BID, d p.i. 11
  % Survival: 100%
802R_10, BID, d p.i. 12
  % Survival: 100%
802R_10, BID, d p.i. 13
  % Survival: 100%
802R_10, BID, d p.i. 14
  % Survival: 100%
802R_10, BID, d p.i. 15
  % Survival: 80%
802R_10, BID, d p.i. 16
  % Survival: 80%
802R_10, BID, d p.i. 17
  % Survival: 80%
802R_10, BID, d p.i. 18
  % Survival: 80%
802R_10, BID, d p.i. 19
  % Survival: 80%
802R_10, BID, d p.i. 20
  % Survival: 80%
802R_10, BID, d p.i. 21
  % Survival: 80%
802R_10, BID, d p.i. 22
  % Survival: 80%
802R_10, BID, d p.i. 23
  % Survival: 80%
802R_10, BID, d p.i. 24
  % Survival: 80%
802R_10, BID, d p.i. 25
  % Survival: 80%

## C[C@@]1(O)[C@H](O)[C@@H](CO)O[C@H]1n1ccc(N)nc1=O [2'CMC, reference compound]
2'CMC, d p.i. 0
  % Survival: 100%
2'CMC, d p.i. 1
  % Survival: 100%
2'CMC, d p.i. 2
  % Survival: 100%
2'CMC, d p.i. 3
  % Survival: 100%
2'CMC, d p.i. 4
  % Survival: 100%
2'CMC, d p.i. 5
  % Survival: 100%
2'CMC, d p.i. 6
  % Survival: 100%
2'CMC, d p.i. 7
  % Survival: 100%
2'CMC, d p.i. 8
  % Survival: 100%
2'CMC, d p.i. 9
  % Survival: 100%
2'CMC, d p.i. 10
  % Survival: 100%
2'CMC, d p.i. 11
  % Survival: 100%
2'CMC, d p.i. 12
  % Survival: 100%
2'CMC, d p.i. 13
  % Survival: 90%
2'CMC, d p.i. 14
  % Survival: 80%
2'CMC, d p.i. 15
  % Survival: 80%
2'CMC, d p.i. 16
  % Survival: 80%
2'CMC, d p.i. 17
  % Survival: 80%
2'CMC, d p.i. 18
  % Survival: 60%
2'CMC, d p.i. 19
  % Survival: 60%
2'CMC, d p.i. 20
  % Survival: 60%
2'CMC, d p.i. 21
  % Survival: 60%
2'CMC, d p.i. 22
  % Survival: 60%
2'CMC, d p.i. 23
  % Survival: 60%
2'CMC, d p.i. 24
  % Survival: 50%
2'CMC, d p.i. 25
  % Survival: 50%
